Laboratory results as given in PubChem BioAssay (NCI).
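Briefly, cells in 96-well plates were exposed to five compound concentrations for 48 h, and endpoints were estimated by linear interpolation. At the TGI there is no net growth.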

Tests used:
Test in all cases: NCI-60 cell line screen, 48 h
786-0 renal = tested on: 786-0 renal
A498 renal = tested on: A498 renal
A549 NSCLC = tested on: A549 NSCLC
ACHN renal = tested on: ACHN renal
CAKI-1 renal = tested on: CAKI-1 renal
CCRF-CEM leukemia = tested on: CCRF-CEM leukemia
COLO 205 colon = tested on: COLO 205 colon
DLD-1 colon = tested on: DLD-1 colon
DMS 114 small cell lung = tested on: DMS 114 small cell lung
DMS 273 small cell lung = tested on: DMS 273 small cell lung
EKVX NSCLC = tested on: EKVX NSCLC
HCC-2998 colon = tested on: HCC-2998 colon
HCT-116 colon = tested on: HCT-116 colon
HCT-15 colon = tested on: HCT-15 colon
HL-60(TB) leukemia = tested on: HL-60(TB) leukemia
HOP-18 NSCLC = tested on: HOP-18 NSCLC
HOP-62 NSCLC = tested on: HOP-62 NSCLC
HOP-92 NSCLC = tested on: HOP-92 NSCLC
HT29 colon = tested on: HT29 colon
IGROV1 ovarian = tested on: IGROV1 ovarian
K-562 leukemia = tested on: K-562 leukemia
KM12 colon = tested on: KM12 colon
KM20L2 colon = tested on: KM20L2 colon
LOX IMVI melanoma = tested on: LOX IMVI melanoma
LXFL 529 NSCLC = tested on: LXFL 529 NSCLC
M14 melanoma = tested on: M14 melanoma
M19-MEL melanoma = tested on: M19-MEL melanoma
MALME-3M melanoma = tested on: MALME-3M melanoma
MOLT-4 leukemia = tested on: MOLT-4 leukemia
NCI-H226 lung = tested on: NCI-H226 lung
NCI-H23 lung = tested on: NCI-H23 lung
NCI-H460 lung = tested on: NCI-H460 lung
NCI-H522 lung = tested on: NCI-H522 lung
OVCAR-3 ovarian = tested on: OVCAR-3 ovarian
OVCAR-4 ovarian = tested on: OVCAR-4 ovarian
OVCAR-5 ovarian = tested on: OVCAR-5 ovarian
OVCAR-8 ovarian = tested on: OVCAR-8 ovarian
RPMI-8226 leukemia = tested on: RPMI-8226 leukemia
RXF 393 renal = tested on: RXF 393 renal
SF-268 CNS = tested on: SF-268 CNS
SF-295 CNS = tested on: SF-295 CNS
SF-539 CNS = tested on: SF-539 CNS
SK-MEL-2 melanoma = tested on: SK-MEL-2 melanoma
SK-MEL-28 melanoma = tested on: SK-MEL-28 melanoma
SK-MEL-5 melanoma = tested on: SK-MEL-5 melanoma
SK-OV-3 ovarian = tested on: SK-OV-3 ovarian
SN12C renal = tested on: SN12C renal
SNB-19 CNS = tested on: SNB-19 CNS
SNB-75 CNS = tested on: SNB-75 CNS
SNB-78 CNS = tested on: SNB-78 CNS
SR leukemia = tested on: SR leukemia
SW-620 colon = tested on: SW-620 colon
TK-10 renal = tested on: TK-10 renal
U251 CNS = tested on: U251 CNS
UACC-257 melanoma = tested on: UACC-257 melanoma
UACC-62 melanoma = tested on: UACC-62 melanoma
UO-31 renal = tested on: UO-31 renal
XF 498 CNS = tested on: XF 498 CNS

N#CNC(=NCc1ccccc1)NCc1ccccc1
TGI (786-0 renal): > 100 µM | TGI (A498 renal): > 100 µM | TGI (A549 NSCLC): > 100 µM | TGI (ACHN renal): > 100 µM | TGI (CAKI-1 renal): > 100 µM | TGI (CCRF-CEM leukemia): > 100 µM | TGI (COLO 205 colon): > 57.3 µM | TGI (DLD-1 colon): > 71 µM | TGI (DMS 114 small cell lung): > 53.4 µM | TGI (DMS 273 small cell lung): > 56 µM | TGI (EKVX NSCLC): > 100 µM | TGI (HCC-2998 colon): > 100 µM | TGI (HCT-116 colon): 33.6 µM | TGI (HCT-15 colon): > 55.8 µM | TGI (HL-60(TB) leukemia): > 100 µM | TGI (HOP-18 NSCLC): > 100 µM | TGI (HOP-62 NSCLC): > 100 µM | TGI (HOP-92 NSCLC): > 100 µM | TGI (HT29 colon): > 100 µM | TGI (IGROV1 ovarian): > 100 µM | TGI (K-562 leukemia): > 100 µM | TGI (KM12 colon): > 100 µM | TGI (KM20L2 colon): > 100 µM | TGI (LOX IMVI melanoma): > 100 µM | TGI (LXFL 529 NSCLC): > 100 µM | TGI (M14 melanoma): > 100 µM | TGI (M19-MEL melanoma): > 96.3 µM | TGI (MALME-3M melanoma): > 100 µM | TGI (MOLT-4 leukemia): > 100 µM | TGI (NCI-H226 lung): > 100 µM | TGI (NCI-H23 lung): > 100 µM | TGI (NCI-H460 lung): > 100 µM | TGI (NCI-H522 lung): > 100 µM | TGI (OVCAR-3 ovarian): > 100 µM | TGI (OVCAR-4 ovarian): > 100 µM | TGI (OVCAR-5 ovarian): > 100 µM | TGI (OVCAR-8 ovarian): > 100 µM | TGI (RPMI-8226 leukemia): > 100 µM | TGI (RXF 393 renal): > 89 µM | TGI (SF-268 CNS): 48.6 µM | TGI (SF-295 CNS): > 100 µM | TGI (SF-539 CNS): > 100 µM | TGI (SK-MEL-2 melanoma): > 100 µM | TGI (SK-MEL-28 melanoma): > 100 µM | TGI (SK-MEL-5 melanoma): > 100 µM | TGI (SK-OV-3 ovarian): > 100 µM | TGI (SN12C renal): > 100 µM | TGI (SNB-19 CNS): > 100 µM | TGI (SNB-75 CNS): > 100 µM | TGI (SNB-78 CNS): > 100 µM | TGI (SR leukemia): 69 µM | TGI (SW-620 colon): > 62.7 µM | TGI (TK-10 renal): > 100 µM | TGI (U251 CNS): > 70.7 µM | TGI (UACC-257 melanoma): > 100 µM | TGI (UACC-62 melanoma): > 100 µM | TGI (UO-31 renal): > 100 µM | TGI (XF 498 CNS): > 100 µM
